# Reference: patent US20230064978A1, “CYCLIC PEPTIDE RECEPTOR LANTHIONINE SYNTHETASE C-LIKE PROTEIN (LANCL) AND USES THEREOF” (LATERAL IP PTY LTD, priority 2019, published 2023)
# Bridges are numbered along the chain shown (N, C = ends). Where no end group is shown, it is not given here.
# How the values were obtained:
# A549 cells = assay: Confocal imaging of LAT9991F-PAL binding and LANCL1 co-localization, with siRNA knockdown and competitors, in A549 cells; type: cell-based; settings: for Competition of LAT9991F-PAL binding by excess competitor: competitor 25 μM
# Procedure: (§1) A photoactivatable analog of LAT8881 (LAT9991F (SEQ ID NO:13)-PAL), was used to conduct the experiments. A549 or NCI-H358 cells were treated with LAT9991F-PAL at 2.5 μM during 30 minutes. Fluorescent signal was recorded after that LAT9991F-PAL was immobilized on its target(s) site by UV-crosslinking and the LAT9991F-PAL-target complexes were labeled with the green-fluorescent Alexa Fluor 488 alkyne dye by click-chemistry. Control cells were treated with the vehicle, dimethyl sulfoxide (DMSO), and with LAT9991F-PAL in combination with a large excess of the parent drug LAT8881 or other competitors, GSH, NSC61610 or ABA to evaluate, respectively, the non-specific fluorescent background and the specificity of the staining. For colocalization experiments, subsequently, immunofluorescence staining with an anti-LANCL1 or LANCL2 antibodies and an Alexa 568 (red) conjugated secondary antibody was performed. Images stacks of cells labeled with probes were collected and evaluated for the degree of colocalization of LAT9991F-PAL-target complexes and LANCL1 or LANCL2 using either the Measure Colocalization plugin in Metamorph or the JACoP plugin in ImageJ).
# (§2) A549 or NCI-H358 cells (ATCC CCL-185 and ATCC CRL-5807, respectively) were cultured in appropriate medium containing 10% heat-inactivated FBS (Dutscher, #SV30160-036), 1% penicillin/streptomycin (Gibco, #15140-122) and maintained in a humidified 37° C. incubator with 5% CO2.
# (§3) LAT9991F-PAL was dissolved in DMSO to make a 10 mM stock solution. Intermediate solutions at 25 μM and 2.5 μM were made in the culture medium from the 10 mM stock solutions of LAT8881 and LAT9991F-PAL, respectively. A two-fold dilution into PBS of each intermediate solution was used for cell treatment. A stock solution at 10 mM was prepared for the other competitors as GSH, NSC61610 and ABA. A final concentration at 25 μM was used for the assay.
# (§4) A549 or NCI-H358 cells were seeded onto ibidiTreat Polymer Coverslips (Ibidi, #80826) at 2.5×10^5 cells/cm^2 in 200 μl of complete medium. After 24 hours, the medium was removed and cells were washed with PBS (Gibco, #10010049) and then pre-treated with the Taxol at 1 μM for 3 hours or with H2O2 25 μM for 2 hours. Cells were washed twice with PBS. Induced stress cells or control cells were then exposed to LAT9991F-PAL (2.5 μM) in PBS for 30 minutes, in the presence or absence of LAT8881 (25 μM), or the other compounds used as a competitor, and pre-incubated 10 minutes. After treatment, cells were washed with cold PBS and UV-irradiated (365 nm) in PBS for 20 min. After fixation with 4% paraformaldehyde and permeabilization (0.5% Triton/PBS) (Image-iT™ Fixation/Permeabilization Kit, ThermoFisher, #R37602), the bioorthogonal reaction with Alexa Fluor 488 Alkyne (1 μM) (ThermoFisher, #A10267) was performed at 25° C. using the Click-iT™ Cell Reaction Buffer Kit (ThermoFisher, #C10269) according to the manufacturer protocol. After click reaction, cells were washed twice with PBS, blocked with 3% BSA in PBS for 1 hour and stained with Hoechst 33342 dye (ThermoFisher, #H1399).
# (§5) For colocalization experiments, cells were further incubated overnight at 4° C. with a mouse anti-LanCL1 antibody (Invitrogen, PAS-57-107) (dilution 1:1000) or LanCL2 (Atlas Antibodies HPA019711) (dilution 1:1000) in 3% BSA in PBS, washed twice with PBS, and then incubated respectively with a goat anti-mouse […] (Molecular Probes, #A21467) (dilution 1:800) for 1 h in 3% BSA in PBS. After three further washing steps with PBS, cells were embedded in Ibidi Mounting Medium (ibidi, #50001). The specimens were kept at 4° C. in the dark until analysis.
# Images were acquired on an Axiovert200M (Zeiss) microscope using a CSU-W1 Yokogawa confocal unit. This microscope is equipped with a plan Apochromat X40 dry objective numerical aperture (NA) 0.95 and a Neofluar X100 oil immersion objective NA 1.45. Images were capture with an EMCCD camera (Prior, ProEM 1024×1024).
# NCI-H358 cells = assay: Confocal imaging of LAT9991F-PAL binding and LANCL1 co-localization, with siRNA knockdown and competitors, in NCI-H358 cells; type: cell-based; settings: for Competition of LAT9991F-PAL binding by excess competitor: competitor 25 μM
# Procedure: as §1, §2, §3
# ibidiTreat Polymer Coverslips (Ibidi, #80826) were coated with serum during 1 hour at 37° C., followed by Laminin (100 μg\ml) (incubation for 1 hour at 37° C.) for NCI-H358 cells.
# as §4, §5
# Images were acquired on an Axiovert200M (Zeiss) microscope using a CSU-W1 Yokogawa confocal unit.
# human recombinant LANCL1 = target: T1, human recombinant LANCL1 (Homo sapiens, UniProt O43813); assay: In-gel fluorescence: photolabelling of recombinant LANCL1 with PAL probes, with or without excess competitor; type: binding; settings: for Inhibition of LAT9991-PAL binding to recombinant LANCL1 by excess competitor: probe LAT9991-PAL, excess unlabelled competitor
# T1 construct: purchased ABCAM ab181923; host or cells: E. coli
# Procedure: The in-gel fluorescence protocol can be briefly described as follows:
# 1. LANCL1 Labelling, Assay on 96 Well Plate, Volume of the Reaction 40 μl in PBS
# 3 μg/well of human recombinant LANCL1 (ABCAM catalog no. ab181923, 1 mg/ml; expressed in E. Coli and incorporating an N-terminal 23 amino acid hexaHis tag; UniProtKB/Swiss-Prot Accession no: O43813);
# • Vehicle DMSO • ±LAT8881 (a cyclic peptide fragment of human growth hormone; SEQ ID NO:1) • SEQ ID NO:1) as competitor @ 25, 50, 100 or 200 μM, pre-incubation 10 min, 4 μl of a stock solution 10-fold concentrated • ±LAT9991-PAL, LAT7771-PAL or LAT9993-PAL probes @ 1 μM, incubation 30 min at room temperature on a plate agitator (protected from light), 4 μl of a stock solution @10 μM
# • Irradiation @ 365 nm 20 min (4° C., on a support containing ice) Transfer 40 μl in a clean Eppendorf tube
# • Reduction: DTT 10 mM, 30 min @ 56° C. • Alkylation: Iodoacetamide 30 mM, 45 min @ RT Click-iT AzideTamra of 60 μL samples
# • Acetone Precipitation −20° C. ON • Dry pellet resuspended in 30 μL 1% SDS in 50 mM Tris-HCl pH 7.5 • Photolabeled LANCL1 was tagged with tetramethylrhodamine (TAMRA) azide @100 μM TAMRA azide by copper click chemistry using the Click-iT Protein Reaction Buffer Kit (ThermoFisher Scientific) during 30 minutes • Precipitation using the chloroform-methanol method, pellet was air-dried for 10 min at room temperature, resuspended in 30 μL SDS loading buffer (Bio Rad's XT Sample Buffer containing 2.5% v/v 2-mercaptoethanol) and heated (60° C., 30 min)
# • SDS-PAGE (4-15% Criterion™ TGX Stain-Free™ Protein Gel, Bio Rad) • Analyzed by in-gel fluorescence scanning using a ChemiDoc™ MP Imaging System (Bio Rad) with a green LED light as an excitation source and a BP600/20 nm emission filter
# [1] = test system: tissue homogenates of nerve from neuropathic animals; assay: PAL cross-linking to nerve tissue homogenates and gel separation; type: binding
# Source text: Using a ligand driven approach, the present inventors utilized the photo-activatable cross-linking PAL from Evotec A.G. (Photo-Activated Labelling) technology that derivatizes the active cyclic peptides to allow UV-induced cross-linking to binding targets (described herein as peptide/SEQ ID NO:X-PAL). This allows subsequent detection in cells, gels of tissue isolates or in pull-down of the peptide/target complex for sequencing by mass spectroscopy (PALMS).
# LAT9991-PAL was cross-linked to tissue homogenates of nerve from neuropathic animals.
# T1 sequence (O43813 with tags, fused parts or gaps): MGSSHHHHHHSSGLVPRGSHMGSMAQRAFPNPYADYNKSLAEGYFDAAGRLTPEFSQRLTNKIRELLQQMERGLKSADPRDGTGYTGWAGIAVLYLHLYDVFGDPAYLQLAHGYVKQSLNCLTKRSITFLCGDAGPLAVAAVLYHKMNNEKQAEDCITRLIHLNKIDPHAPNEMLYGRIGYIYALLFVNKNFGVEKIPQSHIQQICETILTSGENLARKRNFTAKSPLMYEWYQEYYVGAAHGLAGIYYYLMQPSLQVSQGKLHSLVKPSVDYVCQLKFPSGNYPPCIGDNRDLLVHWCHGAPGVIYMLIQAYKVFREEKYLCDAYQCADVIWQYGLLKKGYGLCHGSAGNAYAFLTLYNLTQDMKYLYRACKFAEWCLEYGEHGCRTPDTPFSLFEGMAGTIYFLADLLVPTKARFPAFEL
Compound,Competition of LAT9991F-PAL binding by excess competitor (A549 cells; SiLANCL1 A549 cells),Competition of LAT9991F-PAL binding by excess competitor (NCI-H358 cells; SiLANCL1 NCI-H358 cells),Inhibition of LAT9991-PAL binding to recombinant LANCL1 by excess competitor (human recombinant LANCL1),other results
"O=C(Nc1cccc(-c2nc3ccccc3[nH]2)c1)c1ccc(C(=O)Nc2cccc(-c3nc4ccccc4[nH]3)c2)cc1 [NSC61610, reference compound]",strongly competed off,strongly competed off,–,–
"N[C@@H](CCC(=O)N[C@@H](CS)C(=O)NCC(=O)O)C(=O)O [glutathione, reference compound]",partially competed off,partially competed off,–,–
CRIIHNNNC [LAT7771],partially competed off,partially competed off,inhibited,–
"LAT9991F-PAL: A photoactivatable analog of LAT8881 (LAT9991F (SEQ ID NO:13)-PAL) (CRSVEGSCGF; disulfide 1-8 (inferred); also: PAL cross-linking group, site not given here)",–,–,–,"Co-localization of LANCL1 and probe binding (A549 cells; A549 cells, confocal microscopy, probe 2.5 μM): co-localization; Co-localization of LANCL1 and probe after siRNA knockdown of LANCL1 (A549 cells; SiLANCL1 A549 cells): lost; Level of probe binding in siLANCL1 cells following induced oxidative stress (A549 cells; siLANCL1 A549 cells, H2O2 25 μM 2 hours or Taxol 1 μM 3 hours, vs SiControl): less intense as compared to control cells; Co-localization of LANCL1 and probe binding (NCI-H358 cells; NCI-H358 cells, confocal microscopy, probe 2.5 μM): co-localization; Co-localization of LANCL1 and probe after siRNA knockdown of LANCL1 (NCI-H358 cells; SiLANCL1 NCI-H358 cells): lost; Level of probe binding in siLANCL1 cells following stress (NCI-H358 cells; siLANCL1 NCI-H358 cells, vs control cells): less intense as compared to control cells"
"LAT9993S-PAL: LAT9993S (SEQ ID NO:44) derivatized with the PAL photo-activatable cross-linking group (SCRSRPVESSCS; disulfide 2-11 (inferred); also: ['PAL photo-activatable cross-linking group, structure and site not given here'])",–,–,–,"Cross-linking of PAL probe to tissue homogenates of nerve from neuropathic animals [1]: shown to cross-link; Molecular weight ranges of targets stained after gel separation ([1]; PAL probe cross-linked to nerve homogenates): ˜12-15 kD, ˜37 kD and ˜50 kD; Binding of PAL probe to recombinant LANCL1 (human recombinant LANCL1; in-gel fluorescence after UV (365 nm) cross-linking): bound to recombinant LANCL1"
SCRSRPVESSCS [LAT9993S],partially competed off,partially competed off,inhibited,–
